Data from PubChem BioAssay (NCI).
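GI50 marks 50% less growth. The concentration for full growth arrest is given as TGI.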

Key:
Test in all cases: growth of human tumour cells (NCI), 384-well format
SF-268 CNS = system: SF-268 CNS
ACHN renal = system: ACHN renal
UACC-257 melanoma = system: UACC-257 melanoma
HT29 colon = system: HT29 colon
MOLT-4 leukemia = system: MOLT-4 leukemia
OVCAR-3 ovarian = system: OVCAR-3 ovarian
NCI-H522 lung = system: NCI-H522 lung
DU-145 prostate = system: DU-145 prostate
SN12C renal = system: SN12C renal
PC-3 prostate = system: PC-3 prostate
TK-10 renal = system: TK-10 renal
HOP-62 NSCLC = system: HOP-62 NSCLC
UO-31 renal = system: UO-31 renal
OVCAR-8 ovarian = system: OVCAR-8 ovarian
IGROV1 ovarian = system: IGROV1 ovarian
SF-295 CNS = system: SF-295 CNS
HOP-92 NSCLC = system: HOP-92 NSCLC
BT-549 breast = system: BT-549 breast
MDA-MB-231 breast = system: MDA-MB-231 breast
A549 NSCLC = system: A549 NSCLC
HCC-2998 colon = system: HCC-2998 colon
K-562 leukemia = system: K-562 leukemia
RXF 393 renal = system: RXF 393 renal
OVCAR-4 ovarian = system: OVCAR-4 ovarian
SR leukemia = system: SR leukemia
MCF7 breast = system: MCF7 breast
SF-539 CNS = system: SF-539 CNS
T-47D breast = system: T-47D breast
COLO 205 colon = system: COLO 205 colon
SW-620 colon = system: SW-620 colon
CAKI-1 renal = system: CAKI-1 renal
SK-MEL-28 melanoma = system: SK-MEL-28 melanoma
SK-MEL-2 melanoma = system: SK-MEL-2 melanoma
SK-OV-3 ovarian = system: SK-OV-3 ovarian
786-0 renal = system: 786-0 renal
HCT-15 colon = system: HCT-15 colon
NCI-H460 NSCLC = system: NCI-H460 NSCLC
HL-60(TB) leukemia = system: HL-60(TB) leukemia
MDA-MB-435 melanoma = system: MDA-MB-435 melanoma
MDA-MB-468 breast = system: MDA-MB-468 breast
NCI-H226 lung = system: NCI-H226 lung
SNB-75 CNS = system: SNB-75 CNS
NCI-H23 lung = system: NCI-H23 lung
SNB-19 CNS = system: SNB-19 CNS
SK-MEL-5 melanoma = system: SK-MEL-5 melanoma
EKVX NSCLC = system: EKVX NSCLC
M14 melanoma = system: M14 melanoma
A498 renal = system: A498 renal
HS 578T breast = system: HS 578T breast
UACC-62 melanoma = system: UACC-62 melanoma
OVCAR-5 ovarian = system: OVCAR-5 ovarian
U251 glioblastoma = system: U251 glioblastoma
CCRF-CEM leukemia = system: CCRF-CEM leukemia
NCI-H322M lung = system: NCI-H322M lung
NCI/ADR-RES ovarian = system: NCI/ADR-RES ovarian
HCT-116 colon = system: HCT-116 colon
KM12 colon = system: KM12 colon
LOX IMVI melanoma = system: LOX IMVI melanoma
RPMI-8226 leukemia = system: RPMI-8226 leukemia
MALME-3M melanoma = system: MALME-3M melanoma

## Cc1[nH]nc(C(F)(F)F)c1Cc1sc2c(c1C(=O)N1C[C@](C)(O)CO1)c(=O)n(C)c(=O)n2C(C)C
SF-268 CNS
  TGI: > 29.6 µM
ACHN renal
  GI50: > 33.1 µM
  TGI: > 100 µM
UACC-257 melanoma
  GI50: > 100 µM
  TGI: > 100 µM
HT29 colon
  GI50: > 39.6 µM
  TGI: > 100 µM
MOLT-4 leukemia
  GI50: 0.0847 µM
OVCAR-3 ovarian
  GI50: > 29.3 µM
  TGI: > 100 µM
NCI-H522 lung
  GI50: 2.15 µM
  TGI: 18.3 µM
DU-145 prostate
  GI50: > 30.5 µM
  TGI: > 100 µM
SN12C renal
  GI50: > 100 µM
  TGI: > 100 µM
PC-3 prostate
  GI50: > 100 µM
  TGI: > 100 µM
TK-10 renal
  GI50: > 100 µM
  TGI: > 100 µM
HOP-62 NSCLC
  GI50: > 27.3 µM
  TGI: > 100 µM
UO-31 renal
  GI50: 12.9 µM
  TGI: > 100 µM
OVCAR-8 ovarian
  GI50: > 22.8 µM
  TGI: > 100 µM
IGROV1 ovarian
  GI50: > 100 µM
  TGI: > 100 µM
SF-295 CNS
  GI50: > 100 µM
  TGI: > 100 µM
HOP-92 NSCLC
  GI50: > 100 µM
  TGI: > 100 µM
BT-549 breast
  GI50: > 57 µM
  TGI: > 100 µM
MDA-MB-231 breast
  GI50: > 100 µM
  TGI: > 100 µM
A549 NSCLC
  GI50: > 21.2 µM
  TGI: > 100 µM
HCC-2998 colon
  GI50: > 100 µM
  TGI: > 100 µM
K-562 leukemia
  TGI: > 100 µM
RXF 393 renal
  GI50: > 27.3 µM
  TGI: > 100 µM
OVCAR-4 ovarian
  GI50: > 100 µM
  TGI: > 100 µM
SR leukemia
  GI50: > 100 µM
  TGI: > 100 µM
MCF7 breast
  GI50: > 82.5 µM
  TGI: > 100 µM
SF-539 CNS
  GI50: > 27 µM
  TGI: > 100 µM
T-47D breast
  GI50: > 100 µM
  TGI: > 100 µM
COLO 205 colon
  GI50: > 21.8 µM
  TGI: > 100 µM
SW-620 colon
  GI50: > 24.4 µM
  TGI: > 100 µM
CAKI-1 renal
  GI50: > 47.6 µM
  TGI: > 80 µM
SK-MEL-28 melanoma
  GI50: > 100 µM
  TGI: > 100 µM
SK-MEL-2 melanoma
  GI50: 39.1 µM
  TGI: > 100 µM
SK-OV-3 ovarian
  GI50: > 100 µM
  TGI: > 100 µM
786-0 renal
  GI50: > 26.9 µM
  TGI: > 100 µM
HCT-15 colon
  GI50: 12.2 µM
  TGI: > 100 µM
NCI-H460 NSCLC
  TGI: > 100 µM
HL-60(TB) leukemia
  TGI: > 29.8 µM
MDA-MB-435 melanoma
  GI50: > 69 µM
  TGI: > 100 µM
MDA-MB-468 breast
  GI50: 4.75 µM
  TGI: 66.4 µM
NCI-H226 lung
  GI50: > 100 µM
  TGI: > 100 µM
SNB-75 CNS
  GI50: > 41.9 µM
  TGI: > 100 µM
NCI-H23 lung
  GI50: > 27.1 µM
  TGI: > 100 µM
SNB-19 CNS
  GI50: > 100 µM
  TGI: > 100 µM
SK-MEL-5 melanoma
  TGI: > 100 µM
EKVX NSCLC
  GI50: > 100 µM
  TGI: > 100 µM
M14 melanoma
  GI50: > 33.7 µM
  TGI: > 100 µM
A498 renal
  GI50: > 100 µM
  TGI: > 100 µM
HS 578T breast
  GI50: 8.39 µM
  TGI: > 100 µM
UACC-62 melanoma
  TGI: > 100 µM
OVCAR-5 ovarian
  GI50: > 78.6 µM
  TGI: > 100 µM
U251 glioblastoma
  GI50: > 25 µM
  TGI: > 100 µM
CCRF-CEM leukemia
  GI50: 0.779 µM
NCI-H322M lung
  GI50: > 100 µM
  TGI: > 100 µM
NCI/ADR-RES ovarian
  GI50: > 58.7 µM
  TGI: > 100 µM
HCT-116 colon
  GI50: > 24.5 µM
  TGI: > 100 µM
KM12 colon
  GI50: > 31.6 µM
  TGI: > 100 µM
LOX IMVI melanoma
  TGI: > 100 µM
RPMI-8226 leukemia
  GI50: 20.9 µM
  TGI: > 86 µM
MALME-3M melanoma
  GI50: > 77.9 µM
  TGI: > 100 µM
